Test [1] has as its system RBL-2H3. Nature of the test: Induction of GFP-PKCdelta translocation from cytoplasm to nuclear in RBL2H3 cells at 200 nM over 30 mins by fluorescent imaging. The format is functional, cell-based. The following applies: Rattus norvegicus.
Test [2] relates to RBL-2H3. Kind of test: Induction of GFP-PKCdelta translocation from cytoplasm to plasma membrane in RBL2H3 cells at 200 nM over 30 mins by fluorescent imaging. The format is functional, cell-based. The settings on record: Rattus norvegicus.
The test system of test [3] is PC-3. Kind of test: Cell cycle arrest in human PC3 cells assessed as accumulation at G2/M phase at 1 uM after 48 hrs (Rbv = 19%). The test is classed as functional.
The test system of test [4] is A549. Nature of the test: Cytotoxicity against human A549 cells assessed as cell viability after 48 hrs. The settings on record: A549, 48 h. The test is classed as functional, cell-based.
Test [5] in a line: Depolymerization of Mg2+ filamentous actin in human A549 cells at 450 nM by using FITC-phallodin staining. The format is cell-based.
The subject of test [6] is PC-3. Nature of the test: Cell cycle arrest in human PC3 cells assessed as accumulation at S phase at 1 uM after 48 hrs (Rbv = 18%). The test is classed as functional.
In test [7] the target is T1, Protein kinase C delta type (Homo sapiens, UniProt Q05655). Kind of test: Induction of human recombinant PKCdelta assessed as phosphorylation of amphiphilic peptide substrate at 1 uM in presence of 10 uM phosphatidylserine relative to control.
Target sequence in this assay (Q05655 whole entry, looked up): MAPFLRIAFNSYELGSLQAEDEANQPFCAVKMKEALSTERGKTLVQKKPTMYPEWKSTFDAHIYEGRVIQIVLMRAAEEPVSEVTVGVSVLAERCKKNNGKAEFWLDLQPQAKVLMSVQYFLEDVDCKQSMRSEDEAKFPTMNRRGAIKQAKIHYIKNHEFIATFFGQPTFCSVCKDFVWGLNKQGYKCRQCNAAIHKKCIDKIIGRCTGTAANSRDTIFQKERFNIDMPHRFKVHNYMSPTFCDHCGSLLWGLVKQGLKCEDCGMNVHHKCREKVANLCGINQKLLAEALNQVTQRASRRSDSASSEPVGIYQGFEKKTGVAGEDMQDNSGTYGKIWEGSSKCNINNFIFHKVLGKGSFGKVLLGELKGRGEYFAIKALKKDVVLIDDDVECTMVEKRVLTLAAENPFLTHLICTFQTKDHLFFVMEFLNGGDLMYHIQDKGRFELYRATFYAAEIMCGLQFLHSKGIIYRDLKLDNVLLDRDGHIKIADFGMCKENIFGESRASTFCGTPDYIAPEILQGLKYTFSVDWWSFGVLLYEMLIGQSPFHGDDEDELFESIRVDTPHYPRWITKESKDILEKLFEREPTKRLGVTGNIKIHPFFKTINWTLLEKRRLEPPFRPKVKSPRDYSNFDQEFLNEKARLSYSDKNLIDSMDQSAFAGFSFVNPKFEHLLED
The test system of test [8] is HL-60. Kind of test: Cell cycle arrest in human HL60 cells assessed as accumulation at S phase at 0.5 uM after 48 hrs (Rbv = 44%). The test is classed as functional.
The subject of test [9] is RBL-2H3. Kind of test: Induction of GFP-PKCdelta translocation from cytoplasm to nuclear in RBL2H3 cells at 5 uM over 30 mins by fluorescent imaging. The test is classed as functional, cell-based. The following applies: Rattus norvegicus.
The species entered for the next test is Oryctolagus cuniculus. Nature of the test: (§1) Binding affinity to rabbit skeletal muscle monomeric actin by isothermal calorimetric method. The test is classed as tissue-based. The following applies: Muscle tissue.
Test [10] has as its system PC-3. Kind of test: Dissolution of filamentous actin in human PC3 cells at 20 nM within 15 mins by using FITC-phallodin staining by fluorescent microscopy. The test is classed as functional, cell-based.
In test [11] the test system is A549. Nature of the test: Dissolution of filamentous actin in human A549 cells after 1 hr by using FITC-phallodin staining by fluorescent microscopy. The test is classed as cell-based.
The subject of test [12] is MCF7. Nature of the test: Cell cycle arrest in human MCF7 cells assessed as accumulation at S phase at 1 uM after 48 hrs (Rbv = 18%). The format is functional.
Test [13] deals with HCT-116. Nature of the test: Cytotoxicity against human HCT116 cells assessed as growth inhibition after 48 hrs. The test is classed as functional. The settings on record: HCT-116, 48 h.
The subject of test [14] is PC-3. Kind of test: Cytotoxicity against human PC3 cells assessed as growth inhibition after 48 hrs. The format is functional. The settings on record: PC-3, 48 h.
Test [15] has as its system A549. Kind of test: Cytotoxicity against human A549 cells assessed as growth inhibition after 48 hrs. The test is classed as functional. The following applies: A549, 48 h.
The target of test [16] is Protein kinase C delta type (Rattus norvegicus) (UniProt P09215). Nature of the test: Induction of rat recombinant PKCdelta activity.
Chain of Protein kinase C delta type (Rattus norvegicus) (P09215 whole entry): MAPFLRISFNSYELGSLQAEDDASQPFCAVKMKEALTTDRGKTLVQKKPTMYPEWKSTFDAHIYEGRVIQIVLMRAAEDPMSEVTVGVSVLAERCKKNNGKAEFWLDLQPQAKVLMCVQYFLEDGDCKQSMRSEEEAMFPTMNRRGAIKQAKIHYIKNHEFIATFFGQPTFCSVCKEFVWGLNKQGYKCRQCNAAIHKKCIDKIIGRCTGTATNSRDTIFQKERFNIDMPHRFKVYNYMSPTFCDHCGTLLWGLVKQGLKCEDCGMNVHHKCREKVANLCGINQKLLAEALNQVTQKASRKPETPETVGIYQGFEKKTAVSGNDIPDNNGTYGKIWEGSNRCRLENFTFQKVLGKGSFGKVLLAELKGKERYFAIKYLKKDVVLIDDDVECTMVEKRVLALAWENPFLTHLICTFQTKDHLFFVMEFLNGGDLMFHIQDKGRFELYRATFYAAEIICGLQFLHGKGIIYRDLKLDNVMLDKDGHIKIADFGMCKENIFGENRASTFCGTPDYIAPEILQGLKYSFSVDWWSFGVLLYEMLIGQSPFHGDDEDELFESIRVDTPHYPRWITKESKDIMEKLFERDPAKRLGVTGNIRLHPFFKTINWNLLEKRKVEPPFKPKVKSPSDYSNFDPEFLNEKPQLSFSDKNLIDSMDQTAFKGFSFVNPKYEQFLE
In test [17] the target is T1, Protein kinase C delta type. Kind of test: Displacement of [3H]PDBu from human recombinant PKCdelta by competitive binding assay.
Target sequence in this assay (Q05655 whole entry): as the sequence (Q05655 whole entry, looked up) above
Test [18] concerns A549. Kind of test: Dissolution of filamentous actin in human A549 cells at 50 to 150 nM by using FITC-phallodin staining by fluorescent microscopy. The test is classed as cell-based. The settings on record: TDE = time-dependent effect.
Test [19] in a line: Binding affinity to rabbit skeletal muscle globular actin by isothermal calorimetric method. The test is classed as tissue-based, Oryctolagus cuniculus, Muscle tissue. (Isothermal titration calorimetry measures the heat released or taken up as one component is titrated into another.)
Test [20] has as its system CA46. Nature of the test: Cell cycle arrest in human CA46 cells assessed as accumulation at G2/M phase at 1 uM after 48 hrs. The format is functional, cell-based.
Another test concerns CHO-K1. Nature of the test: Dissolution of filamentous actin in chinese hamster CHOK1 cells at 20 nM within 15 mins by using FITC-phallodin staining by fluorescent microscopy. The following applies: Cricetulus griseus. The format is cell-based.
Test [21] deals with CA46. Kind of test: Cell cycle arrest in human CA46 cells assessed as accumulation at G0/G1 phase at 1 uM after 48 hrs. The test is classed as functional, cell-based.
The test system of test [22] is MCF7. Nature of the test: Cell cycle arrest in human MCF7 cells assessed as accumulation at G0/G1 phase at 1 uM after 48 hrs (Rbv = 74%). The test is classed as functional.
For test [23], the system named is CA46. Kind of test: Antiproliferative activity against human CA46 cells assessed as mitotic cells at 1 uM after 48 hrs by visual examination (Rbv = 3%). The format is functional.
The subject of test [24] is CA46. Nature of the test: Antiproliferative activity against human CA46 cells assessed as binucleated cells at 1 uM after 48 hrs by visual examination (Rbv = 6%). The test is classed as functional.
In test [25] the test system is A549. Kind of test: Inhibition of globular actin polymerization at steady state in human A549 cells assessed as change in fluorescence intensity. The test is classed as cell-based.
Test [26] concerns HL-60. Kind of test: Cytotoxicity against human HL60 cells assessed as cell viability after 48 hrs. The test is classed as functional, cell-based. The following applies: HL-60, 48 h.
In test [27] the test system is HCT-116. Nature of the test: Cytotoxicity against human HCT116 cells assessed as cell viability after 48 hrs. The format is functional, cell-based. The following applies: HCT-116, 48 h.
The next test deals with PtK2. Nature of the test: Dissolution of filamentous actin in […] PtK2 cells at 20 nM within 15 mins by using FITC-phallodin staining by fluorescent microscopy. The test is classed as cell-based.
Test [28] concerns A549. Nature of the test: Increase in dissolution of filamentous actin in human A549 cells at 120 to 450 nM by using FITC-phallodin staining by fluorescent microscopy. The test is classed as cell-based.
Test [29] relates to PC-3. Nature of the test: Cytotoxicity against human PC3 cells assessed as cell viability after 48 hrs. The test is classed as functional, cell-based. The settings on record: PC-3, 48 h.
In test [30] the target is T1, Protein kinase C delta type. Nature of the test: Induction of human recombinant PKCdelta assessed as phosphorylation of amphiphilic peptide substrate at 0.1 uM in presence of 10 uM phosphatidylserine relative to control.
Target sequence in this assay (Q05655 whole entry, looked up): as above
The test system of test [31] is MCF7. Nature of the test: Cell cycle arrest in human MCF7 cells assessed as accumulation at G1 phase at 1 uM after 48 hrs (Rbv = 73%). The format is functional.
A short description of test [32]: Depolymerization of Ca2+ filamentous actin in human A549 cells at 450 nM by using FITC-phallodin staining. The format is cell-based.
Test [33] has as its system MCF7. Nature of the test: Cell cycle arrest in human MCF7 cells assessed as accumulation at G2/M phase at 1 uM after 48 hrs (Rbv = 7%). The test is classed as functional.
The subject of test [34] is HL-60. Kind of test: Cell cycle arrest in human HL60 cells assessed as accumulation at G1 phase at 0.5 uM after 48 hrs (Rbv = 38%). The format is functional.
The subject of test [35] is HL-60. Kind of test: Cell cycle arrest in human HL60 cells assessed as accumulation at G2/M phase at 0.5 uM after 48 hrs (Rbv = 11%). The format is functional.
Test [36] deals with HL-60. Kind of test: Cytotoxicity against human HL60 cells assessed as growth inhibition after 48 hrs. The format is functional. The following applies: HL-60, 48 h.
Test [37] relates to PC-3. Kind of test: Cell cycle arrest in human PC3 cells assessed as accumulation at G1 phase at 1 uM after 48 hrs (Rbv = 58%). The test is classed as functional.
The nature of test [38]: as §1. The format is tissue-based, Oryctolagus cuniculus, Muscle tissue.
Test [39] can be described thus: Inhibition of actin polymerization.

The source made the active and inactive calls. No cut-off for these calls is given here.

The term IC50 denotes the concentration needed to halve the response being measured. By GI50 is commonly meant the concentration at which growth is held to half of that of the control. A word on the Ki: it is a measure of affinity in units of concentration, obtained from inhibition or displacement. One may read the Kd as the free concentration of one partner at which half of the binding sites on the other are occupied at equilibrium, for simple one-to-one binding. A lower Kd goes with a tighter complex.

As to `CCC/C=C/C=C/C(=O)O[C@H]1/C(=C/C(=O)OC)C[C@H]2C[C@H]([C@@H](C)O)OC(=O)C[C@H](O)C[C@@H]3C[C@H](OC(C)=O)C(C)(C)[C@](O)(C[C@@H]4C/C(=C/C(=O)OC)C[C@H](/C=C/C(C)(C)[C@]1(O)O2)O4)O3`, the result in the test on RBL-2H3 [1] and in the test on RBL-2H3 [2] was Active.
For the compound `C/C=C/C(=O)C[C@H]1CC[C@H](C)[C@H](CC(=O)NC[C@H](O)[C@H](C)C(=O)NCCC[C@H]2O[C@@]3(CCC[C@H](CC[C@H](C)/C=C(\C)[C@H](C)O)O3)CC[C@@H]2C)O1` [BISTRAMIDE A], the Activity in the test on PC-3 [3] was 43%; in the test with PC-3 [6] it was 14%; in the test on HL-60 [8], 48%; with A549 [11], “Dose-dependent effect”; in the test on MCF7 [12], 24%; in the test on A549 [18] it was “tde”. For the same compound, the Activity with MCF7 [22] is reported as 33%; in the test with CA46 [23] it was 4%; with CA46 [24] it was 48%; with MCF7 [31], 33%; with MCF7 [33] it was 38%; in the test on HL-60 [34], 18%. The Activity in the test on HL-60 [35] is listed as 27%; in the test on PC-3 [37] it was 37%. In addition, the IC50 is 63 nM in the test with A549 [4], above 1000 nM in the test on HL-60 [26], 437 nM with HCT-116 [27] and 107 nM with PC-3 [29]. For the same compound, the result (in [5]; with PC-3 [10]; with CA46 [20]; with CHO-K1; in the test with CA46 [21]; with PtK2) was Active. In addition, the result (in the test with A549 [28]; in [32]) was Active. Moreover, the fold change (FC) in [7] is 3.8; in test [30] it was 4.5. In addition, the outcome (in the test with RBL-2H3 [9]; in test [16]) was inactive. This compound showed a Ka in the test filed under Oryctolagus cuniculus of 1.46 ×10⁸ /M. In addition, the GI50 in the test with HCT-116 [13] was 200 nM; in the test with PC-3 [14], 5 nM; in the test on A549 [15] it was 13 nM; in the test on HL-60 [36] it was 200 nM. Besides, in [17], the Ki is 27000 nM. Also, in test [19], the Kd was determined as 7 nM. The inhibition result in the test with A549 [25] was “Dose-dependent effect”.
Consider `C/C1=C/C(=O)O[C@@H]2C[C@@H](CC[C@H](C)/C=C\C=C\CC1)O[C@@](O)([C@@H]1CSC(=O)N1)C2` [LATRUNCULIN A], for which the Kd in [38] worked out at 170 nM; in [39], 200 nM.

(Values after ChEMBL document CHEMBL1221165, “Actin is the primary cellular receptor of bistramide A” (Nat Chem Biol, 2005).)
